From the NIST ThermoML archive (doi:10.1021/je300873x)

Test: mn = molality of the nth substance listed, in mol/kg
Details: for surface tension liquid-gas: Pendant drop shape; for electrical conductivity: Liquid, Digital conductivity meter

CCCCCCCCCCCCCC[N+](C)(C)CCO.[Br-] [N-tetradecyl-hydroxyethyl-dimethyl ammonium bromide] + O
Details	electrical conductivity [S/m]	surface tension liquid-gas [mN/m]
298.15 K, m1 = 0.0003	–	66.02
298.15 K, m1 = 0.0006	–	60.97
298.15 K, m1 = 0.00081	–	58.35
298.15 K, m1 = 0.00101	–	55.52
298.15 K, m1 = 0.00151	–	49.52
298.15 K, m1 = 0.00201	–	45.03
298.15 K, m1 = 0.00252	–	41.15
298.15 K, m1 = 0.00258	0.0207	–
298.15 K, m1 = 0.00268	0.0215	–
298.15 K, m1 = 0.00279	0.0223	–
298.15 K, m1 = 0.00291	0.0232	–
298.15 K, m1 = 0.00302	–	38.35
298.15 K, m1 = 0.00303	0.0241	–
298.15 K, m1 = 0.00317	0.0251	–
298.15 K, m1 = 0.00332	0.0261	–
298.15 K, m1 = 0.00349	0.027	–
298.15 K, m1 = 0.00367	0.0275	–
298.15 K, m1 = 0.00388	0.028	–
298.15 K, m1 = 0.00403	–	37.57
298.15 K, m1 = 0.00411	0.0285	–
298.15 K, m1 = 0.00436	0.029	–
298.15 K, m1 = 0.00465	0.0296	–
298.15 K, m1 = 0.00499	0.0302	–
298.15 K, m1 = 0.00503	–	37.62
298.15 K, m1 = 0.00537	0.0309	–
298.15 K, m1 = 0.00582	0.0318	–
298.15 K, m1 = 0.00604	–	37.61
298.15 K, m1 = 0.00635	0.0328	–
298.15 K, m1 = 0.00698	0.034	–
298.15 K, m1 = 0.00806	–	37.61
303.15 K, m1 = 0.00258	0.0231	–
303.15 K, m1 = 0.00268	0.024	–
303.15 K, m1 = 0.00279	0.0249	–
303.15 K, m1 = 0.0029	0.026	–
303.15 K, m1 = 0.00303	0.0269	–
303.15 K, m1 = 0.00317	0.028	–
303.15 K, m1 = 0.00332	0.0292	–
303.15 K, m1 = 0.00348	0.0303	–
303.15 K, m1 = 0.00367	0.031	–
303.15 K, m1 = 0.00387	0.0316	–
303.15 K, m1 = 0.0041	0.0322	–
303.15 K, m1 = 0.00436	0.0328	–
303.15 K, m1 = 0.00465	0.0335	–
303.15 K, m1 = 0.00498	0.0342	–
303.15 K, m1 = 0.00536	0.035	–
303.15 K, m1 = 0.00581	0.036	–
303.15 K, m1 = 0.00634	0.0372	–
303.15 K, m1 = 0.00697	0.0385	–
308.15 K, m1 = 0.00258	0.0254	–
308.15 K, m1 = 0.00268	0.0263	–
308.15 K, m1 = 0.00278	0.0274	–
308.15 K, m1 = 0.0029	0.0283	–
308.15 K, m1 = 0.00303	0.0295	–
308.15 K, m1 = 0.00316	0.0308	–
308.15 K, m1 = 0.00331	0.0321	–
308.15 K, m1 = 0.00348	0.0334	–
308.15 K, m1 = 0.00366	0.0346	–
308.15 K, m1 = 0.00387	0.0352	–
308.15 K, m1 = 0.00409	0.0359	–
308.15 K, m1 = 0.00435	0.0366	–
308.15 K, m1 = 0.00464	0.0374	–
308.15 K, m1 = 0.00497	0.0383	–
308.15 K, m1 = 0.00535	0.0393	–
308.15 K, m1 = 0.0058	0.0404	–
308.15 K, m1 = 0.00633	0.0418	–
308.15 K, m1 = 0.00696	0.0435	–
313.15 K, m1 = 0.00257	0.0278	–
313.15 K, m1 = 0.00267	0.0287	–
313.15 K, m1 = 0.00278	0.0298	–
313.15 K, m1 = 0.00289	0.0311	–
313.15 K, m1 = 0.00302	0.0325	–
313.15 K, m1 = 0.00316	0.0339	–
313.15 K, m1 = 0.00331	0.0354	–
313.15 K, m1 = 0.00347	0.037	–
313.15 K, m1 = 0.00366	0.0385	–
313.15 K, m1 = 0.00386	0.0395	–
313.15 K, m1 = 0.00409	0.0405	–
313.15 K, m1 = 0.00434	0.0414	–
313.15 K, m1 = 0.00463	0.0421	–
313.15 K, m1 = 0.00496	0.0431	–
313.15 K, m1 = 0.00534	0.0441	–
313.15 K, m1 = 0.00579	0.0455	–
313.15 K, m1 = 0.00631	0.0472	–
313.15 K, m1 = 0.00695	0.0491	–
318.15 K, m1 = 0.00257	0.0307	–
318.15 K, m1 = 0.00267	0.0317	–
318.15 K, m1 = 0.00277	0.0329	–
318.15 K, m1 = 0.00289	0.0343	–
318.15 K, m1 = 0.00301	0.0356	–
318.15 K, m1 = 0.00315	0.037	–
318.15 K, m1 = 0.0033	0.0385	–
318.15 K, m1 = 0.00347	0.0407	–
318.15 K, m1 = 0.00365	0.0426	–
318.15 K, m1 = 0.00385	0.044	–
318.15 K, m1 = 0.00408	0.0454	–
318.15 K, m1 = 0.00433	0.0465	–
318.15 K, m1 = 0.00462	0.0475	–
318.15 K, m1 = 0.00495	0.0488	–
318.15 K, m1 = 0.00533	0.0499	–
318.15 K, m1 = 0.00578	0.0514	–
318.15 K, m1 = 0.0063	0.0531	–
318.15 K, m1 = 0.00693	0.0552	–
323.15 K, m1 = 0.00256	0.0332	–
323.15 K, m1 = 0.00266	0.0345	–
323.15 K, m1 = 0.00277	0.0357	–
323.15 K, m1 = 0.00288	0.0372	–
323.15 K, m1 = 0.00301	0.0389	–
323.15 K, m1 = 0.00314	0.0404	–
323.15 K, m1 = 0.00329	0.0423	–
323.15 K, m1 = 0.00346	0.0442	–
323.15 K, m1 = 0.00364	0.0465	–
323.15 K, m1 = 0.00384	0.0487	–
323.15 K, m1 = 0.00407	0.0506	–
323.15 K, m1 = 0.00432	0.0522	–
323.15 K, m1 = 0.00461	0.0535	–
323.15 K, m1 = 0.00494	0.0547	–
323.15 K, m1 = 0.00532	0.0563	–
323.15 K, m1 = 0.00576	0.0581	–
323.15 K, m1 = 0.00629	0.0598	–
323.15 K, m1 = 0.00692	0.062	–
